In paper PMC6407917, “Identification of GSK3186899/DDD853651 as a Preclinical Development Candidate for the Treatment of Visceral Leishmaniasis” (Journal of Medicinal Chemistry, 2018):
pIC50: −log10 of the molar value.

Key:
Test in all cases: biochemical
Set-up in all cases: species or system HEK293/K-562/placenta mixed human extract; Kinobeads chemoproteomic competition binding, quantified by TMT LC-MS/MS, dose response up to 20 uM
CHUK = CHUK (Homo sapiens, UniProt O15111)
MAP3K5 = MAP3K5 (Homo sapiens, UniProt Q99683)
TGFBR1 = TGFBR1 (Homo sapiens, UniProt P36897)
MKNK2 = MKNK2 (Homo sapiens, UniProt Q9HBH9)
EPHB4 = EPHB4 (Homo sapiens, UniProt P54760)
PLK1 = PLK1 (Homo sapiens, UniProt P53350)
TEC = TEC (Homo sapiens, UniProt P42680)
TP53RK = TP53RK (Homo sapiens, UniProt Q96S44)
STK17A = STK17A (Homo sapiens, UniProt Q9UEE5)
FES = FES (Homo sapiens, UniProt P07332)
CSNK1D = CSNK1D (Homo sapiens, UniProt P48730)
mTOR = mTOR (Homo sapiens, UniProt P42345)
MAP2K1 = MAP2K1 (Homo sapiens, UniProt Q02750)
JAK2 = JAK2 (Homo sapiens, UniProt O60674)
CHEK2 = CHEK2 (Homo sapiens, UniProt O96017)
ULK1 = ULK1 (Homo sapiens, UniProt O75385)
MAP3K3 = MAP3K3 (Homo sapiens, UniProt Q99759)
LRRK2 = LRRK2 (Homo sapiens, UniProt Q5S007)
LIMK1 = LIMK1 (Homo sapiens, UniProt P53667)
MAP4K2 = MAP4K2 (Homo sapiens, UniProt Q12851)
TYRO3 = TYRO3 (Homo sapiens, UniProt Q06418)

Measured: pIC50

Chain of TGFBR1 (P36897 whole entry): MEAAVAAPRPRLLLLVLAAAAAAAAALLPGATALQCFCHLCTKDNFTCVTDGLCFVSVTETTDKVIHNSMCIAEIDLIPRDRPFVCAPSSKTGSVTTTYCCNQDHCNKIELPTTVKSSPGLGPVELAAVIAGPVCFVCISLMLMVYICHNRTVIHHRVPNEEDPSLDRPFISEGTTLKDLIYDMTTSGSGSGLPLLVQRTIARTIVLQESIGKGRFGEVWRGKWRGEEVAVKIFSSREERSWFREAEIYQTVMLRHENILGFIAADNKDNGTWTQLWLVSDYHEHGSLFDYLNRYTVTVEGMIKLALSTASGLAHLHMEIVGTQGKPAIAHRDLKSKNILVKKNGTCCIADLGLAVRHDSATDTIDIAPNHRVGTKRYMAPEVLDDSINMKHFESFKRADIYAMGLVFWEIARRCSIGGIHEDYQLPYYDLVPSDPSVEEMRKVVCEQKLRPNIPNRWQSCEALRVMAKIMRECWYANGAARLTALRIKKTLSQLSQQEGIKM
Chain of CHUK (O15111 whole entry): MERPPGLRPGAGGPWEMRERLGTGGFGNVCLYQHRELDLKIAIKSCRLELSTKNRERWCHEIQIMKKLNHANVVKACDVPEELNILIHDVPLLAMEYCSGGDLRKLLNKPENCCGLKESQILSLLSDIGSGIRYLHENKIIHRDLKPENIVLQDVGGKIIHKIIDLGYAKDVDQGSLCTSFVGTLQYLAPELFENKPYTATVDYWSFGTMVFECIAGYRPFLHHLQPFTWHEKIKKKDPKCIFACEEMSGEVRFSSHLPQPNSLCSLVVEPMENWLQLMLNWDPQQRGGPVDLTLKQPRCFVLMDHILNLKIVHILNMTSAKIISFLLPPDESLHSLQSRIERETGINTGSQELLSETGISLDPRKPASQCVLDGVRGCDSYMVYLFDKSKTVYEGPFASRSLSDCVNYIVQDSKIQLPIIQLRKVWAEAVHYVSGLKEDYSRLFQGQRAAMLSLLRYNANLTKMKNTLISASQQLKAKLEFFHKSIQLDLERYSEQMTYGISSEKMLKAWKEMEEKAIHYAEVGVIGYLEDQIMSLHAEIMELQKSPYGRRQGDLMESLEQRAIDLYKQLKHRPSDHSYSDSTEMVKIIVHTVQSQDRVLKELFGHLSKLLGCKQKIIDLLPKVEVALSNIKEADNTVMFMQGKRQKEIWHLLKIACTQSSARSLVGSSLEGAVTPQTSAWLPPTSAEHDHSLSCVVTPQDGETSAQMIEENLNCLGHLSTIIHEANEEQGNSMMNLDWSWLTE
Chain of MAP2K1 (Q02750 whole entry): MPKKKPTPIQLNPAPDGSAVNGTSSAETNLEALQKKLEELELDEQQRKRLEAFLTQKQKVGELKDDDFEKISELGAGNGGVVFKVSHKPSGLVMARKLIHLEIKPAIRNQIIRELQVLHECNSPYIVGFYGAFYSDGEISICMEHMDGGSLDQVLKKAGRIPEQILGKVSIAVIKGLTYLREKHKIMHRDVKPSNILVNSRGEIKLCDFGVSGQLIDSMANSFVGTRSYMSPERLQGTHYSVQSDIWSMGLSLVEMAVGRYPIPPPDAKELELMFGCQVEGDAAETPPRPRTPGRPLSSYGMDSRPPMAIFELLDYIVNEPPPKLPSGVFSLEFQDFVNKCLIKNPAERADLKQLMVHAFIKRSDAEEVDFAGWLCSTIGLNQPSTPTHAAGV
Chain of FES (P07332 whole entry): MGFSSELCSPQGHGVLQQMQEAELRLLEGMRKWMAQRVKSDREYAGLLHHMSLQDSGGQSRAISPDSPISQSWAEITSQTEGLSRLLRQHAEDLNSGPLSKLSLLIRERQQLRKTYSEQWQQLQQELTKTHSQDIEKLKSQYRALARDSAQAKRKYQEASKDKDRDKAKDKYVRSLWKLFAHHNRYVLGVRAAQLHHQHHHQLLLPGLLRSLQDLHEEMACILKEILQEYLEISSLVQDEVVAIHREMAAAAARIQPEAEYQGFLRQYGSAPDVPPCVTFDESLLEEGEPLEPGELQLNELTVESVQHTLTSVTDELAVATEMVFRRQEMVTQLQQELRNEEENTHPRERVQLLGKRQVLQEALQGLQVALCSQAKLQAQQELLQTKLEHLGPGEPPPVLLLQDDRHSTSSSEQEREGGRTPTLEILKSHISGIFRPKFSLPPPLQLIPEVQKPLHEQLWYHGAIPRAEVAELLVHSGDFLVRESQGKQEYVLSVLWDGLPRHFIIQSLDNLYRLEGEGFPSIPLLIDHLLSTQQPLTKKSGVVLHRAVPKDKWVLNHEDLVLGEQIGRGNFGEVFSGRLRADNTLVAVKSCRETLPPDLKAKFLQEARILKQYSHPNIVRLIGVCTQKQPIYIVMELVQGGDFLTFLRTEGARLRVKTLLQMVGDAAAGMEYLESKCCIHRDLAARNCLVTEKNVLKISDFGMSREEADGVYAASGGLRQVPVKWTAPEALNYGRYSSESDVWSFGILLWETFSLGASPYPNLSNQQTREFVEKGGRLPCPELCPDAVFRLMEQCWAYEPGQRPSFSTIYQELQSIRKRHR
Chain of PLK1 (P53350 whole entry): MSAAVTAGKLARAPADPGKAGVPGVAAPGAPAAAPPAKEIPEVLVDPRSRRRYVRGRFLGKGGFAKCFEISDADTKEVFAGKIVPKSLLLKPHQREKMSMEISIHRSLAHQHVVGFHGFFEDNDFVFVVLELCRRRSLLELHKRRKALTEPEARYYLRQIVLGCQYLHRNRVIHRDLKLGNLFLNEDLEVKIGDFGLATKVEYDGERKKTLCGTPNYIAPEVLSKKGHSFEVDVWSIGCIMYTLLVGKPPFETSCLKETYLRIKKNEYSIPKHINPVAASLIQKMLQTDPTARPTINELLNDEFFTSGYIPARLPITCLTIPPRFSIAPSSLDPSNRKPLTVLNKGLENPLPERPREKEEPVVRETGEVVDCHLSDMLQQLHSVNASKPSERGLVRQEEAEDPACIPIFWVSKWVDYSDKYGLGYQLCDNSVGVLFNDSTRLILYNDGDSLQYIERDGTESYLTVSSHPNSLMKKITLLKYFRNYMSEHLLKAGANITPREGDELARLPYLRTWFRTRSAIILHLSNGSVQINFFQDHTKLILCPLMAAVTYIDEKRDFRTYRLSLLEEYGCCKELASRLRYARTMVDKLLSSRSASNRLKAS
Chain of JAK2 (O60674 whole entry): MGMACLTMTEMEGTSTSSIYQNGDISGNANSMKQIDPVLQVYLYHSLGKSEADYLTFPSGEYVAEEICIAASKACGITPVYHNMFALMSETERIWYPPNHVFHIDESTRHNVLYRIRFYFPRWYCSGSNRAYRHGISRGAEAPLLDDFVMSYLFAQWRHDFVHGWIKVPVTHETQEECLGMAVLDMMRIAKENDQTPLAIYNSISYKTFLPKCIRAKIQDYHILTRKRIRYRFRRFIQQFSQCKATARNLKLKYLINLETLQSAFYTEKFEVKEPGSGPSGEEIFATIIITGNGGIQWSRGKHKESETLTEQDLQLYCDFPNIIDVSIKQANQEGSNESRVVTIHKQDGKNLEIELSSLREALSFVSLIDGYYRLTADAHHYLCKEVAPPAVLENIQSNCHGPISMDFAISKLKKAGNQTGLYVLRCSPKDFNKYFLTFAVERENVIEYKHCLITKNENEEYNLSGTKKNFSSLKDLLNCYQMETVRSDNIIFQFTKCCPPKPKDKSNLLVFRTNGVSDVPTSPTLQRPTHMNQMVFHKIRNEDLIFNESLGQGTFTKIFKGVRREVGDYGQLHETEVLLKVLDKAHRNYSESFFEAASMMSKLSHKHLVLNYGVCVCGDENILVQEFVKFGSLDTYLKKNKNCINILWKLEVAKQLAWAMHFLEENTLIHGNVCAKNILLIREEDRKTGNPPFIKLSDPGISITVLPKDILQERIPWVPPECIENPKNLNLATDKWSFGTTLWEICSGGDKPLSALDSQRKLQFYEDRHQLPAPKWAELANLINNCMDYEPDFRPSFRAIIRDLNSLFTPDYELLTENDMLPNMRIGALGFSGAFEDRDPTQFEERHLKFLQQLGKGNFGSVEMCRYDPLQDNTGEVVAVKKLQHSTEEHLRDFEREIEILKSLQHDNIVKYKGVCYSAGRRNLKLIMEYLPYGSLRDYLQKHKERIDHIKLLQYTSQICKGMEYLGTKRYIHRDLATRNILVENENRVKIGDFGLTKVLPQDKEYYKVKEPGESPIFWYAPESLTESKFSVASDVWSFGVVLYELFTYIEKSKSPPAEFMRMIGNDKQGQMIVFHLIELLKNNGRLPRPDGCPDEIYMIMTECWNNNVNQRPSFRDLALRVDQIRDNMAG
Chain of CHEK2 (O96017 whole entry): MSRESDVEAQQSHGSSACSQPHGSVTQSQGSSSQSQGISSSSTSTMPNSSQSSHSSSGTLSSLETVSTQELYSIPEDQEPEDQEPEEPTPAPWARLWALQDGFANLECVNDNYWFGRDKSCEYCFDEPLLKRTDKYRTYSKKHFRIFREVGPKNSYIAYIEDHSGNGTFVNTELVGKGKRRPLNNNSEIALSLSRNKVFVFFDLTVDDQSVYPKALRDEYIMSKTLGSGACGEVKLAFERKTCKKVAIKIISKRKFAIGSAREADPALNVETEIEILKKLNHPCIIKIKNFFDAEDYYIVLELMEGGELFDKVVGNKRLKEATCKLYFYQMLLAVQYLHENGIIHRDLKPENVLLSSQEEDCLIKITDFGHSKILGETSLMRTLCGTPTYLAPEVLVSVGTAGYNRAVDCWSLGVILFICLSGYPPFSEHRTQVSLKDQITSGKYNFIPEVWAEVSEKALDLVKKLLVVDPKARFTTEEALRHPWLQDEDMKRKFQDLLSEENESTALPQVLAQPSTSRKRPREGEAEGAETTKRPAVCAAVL
Chain of TP53RK (Q96S44 whole entry): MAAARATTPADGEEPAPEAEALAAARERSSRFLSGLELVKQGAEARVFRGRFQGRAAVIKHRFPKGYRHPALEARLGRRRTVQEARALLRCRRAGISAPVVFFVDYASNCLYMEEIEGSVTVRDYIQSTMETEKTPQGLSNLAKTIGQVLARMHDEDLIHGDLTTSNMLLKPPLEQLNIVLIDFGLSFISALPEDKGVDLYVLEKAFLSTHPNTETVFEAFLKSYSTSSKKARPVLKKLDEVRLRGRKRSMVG

COc1nc(N[C@H]2CC[C@H](NS(=O)(=O)CC(C)C)CC2)nc2[nH]nc(N3CCOC[C@H]3C)c12 [compound 39, N-(trans-4-((4-Methoxy-3-((R)-3-methylmorpholino)-1H-pyrazolo[3,4-d]pyrimidin-6-yl)amino)cyclohexyl)-2-methylpropane-1-sulfonamide]
≤ 4.70: all assays above
